# Test results reported in patent publication US8158636B2, “Compounds and methods for kinase modulation, and indications therefor” (Plexxikon Inc., priority 2008, dated 2012).
# What was measured:
# Assay type in all cases: biochemical
# Kdr = Kdr (Homo sapiens, UniProt P35968); assay: Kinase activity assay, Kdr; conditions: Table 1i; read-out: activity toward kinase Kdr, IC50
# Source text: (§1) Assays for the activity of kinases, including, but not limited to, Fms, Kit, B-Raf, B-Raf V600E, c-Raf-1, and TrkA are known in the art, for example as described in US Patent Publication Number US20070032519 and U.S. patent application Ser. No. 11/473,347 (see also, PCT publication WO2007002433), the disclosures of which are hereby incorporated by reference with respect to such assays.
# Kit = Kit (Homo sapiens, UniProt P10721); assay: Kinase activity assay, Kit; conditions: Table 1j; read-out: activity toward kinase Kit, IC50
# Kit, sequence (P10721 26-976): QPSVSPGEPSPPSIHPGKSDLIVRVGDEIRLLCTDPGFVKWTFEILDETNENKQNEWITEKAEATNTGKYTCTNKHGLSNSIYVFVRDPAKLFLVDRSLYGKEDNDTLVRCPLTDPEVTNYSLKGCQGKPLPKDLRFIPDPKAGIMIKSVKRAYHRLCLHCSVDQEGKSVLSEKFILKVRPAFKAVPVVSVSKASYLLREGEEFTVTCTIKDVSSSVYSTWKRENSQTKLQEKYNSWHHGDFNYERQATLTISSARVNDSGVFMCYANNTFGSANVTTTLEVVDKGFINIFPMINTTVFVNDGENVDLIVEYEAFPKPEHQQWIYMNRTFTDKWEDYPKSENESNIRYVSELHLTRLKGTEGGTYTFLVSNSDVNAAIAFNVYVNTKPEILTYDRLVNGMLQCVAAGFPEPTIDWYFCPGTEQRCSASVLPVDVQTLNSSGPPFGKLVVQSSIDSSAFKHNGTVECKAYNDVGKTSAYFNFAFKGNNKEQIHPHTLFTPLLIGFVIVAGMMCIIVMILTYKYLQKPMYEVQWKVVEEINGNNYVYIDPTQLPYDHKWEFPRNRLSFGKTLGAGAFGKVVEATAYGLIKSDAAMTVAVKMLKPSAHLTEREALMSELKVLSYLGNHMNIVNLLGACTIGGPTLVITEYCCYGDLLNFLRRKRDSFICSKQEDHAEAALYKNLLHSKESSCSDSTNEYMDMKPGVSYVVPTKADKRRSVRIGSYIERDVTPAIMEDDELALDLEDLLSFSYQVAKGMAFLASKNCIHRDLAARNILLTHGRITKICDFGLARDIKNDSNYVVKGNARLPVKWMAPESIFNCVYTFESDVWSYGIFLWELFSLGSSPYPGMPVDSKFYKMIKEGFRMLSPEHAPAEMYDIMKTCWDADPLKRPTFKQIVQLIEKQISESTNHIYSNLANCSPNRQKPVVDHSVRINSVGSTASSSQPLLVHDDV
# Source text: as §1
# Fms = Fms (Homo sapiens, UniProt P07333); assay: Kinase activity assay, Fms; conditions: Table 1h; read-out: activity toward kinase Fms, IC50
# Fms, sequence (P07333 20-972): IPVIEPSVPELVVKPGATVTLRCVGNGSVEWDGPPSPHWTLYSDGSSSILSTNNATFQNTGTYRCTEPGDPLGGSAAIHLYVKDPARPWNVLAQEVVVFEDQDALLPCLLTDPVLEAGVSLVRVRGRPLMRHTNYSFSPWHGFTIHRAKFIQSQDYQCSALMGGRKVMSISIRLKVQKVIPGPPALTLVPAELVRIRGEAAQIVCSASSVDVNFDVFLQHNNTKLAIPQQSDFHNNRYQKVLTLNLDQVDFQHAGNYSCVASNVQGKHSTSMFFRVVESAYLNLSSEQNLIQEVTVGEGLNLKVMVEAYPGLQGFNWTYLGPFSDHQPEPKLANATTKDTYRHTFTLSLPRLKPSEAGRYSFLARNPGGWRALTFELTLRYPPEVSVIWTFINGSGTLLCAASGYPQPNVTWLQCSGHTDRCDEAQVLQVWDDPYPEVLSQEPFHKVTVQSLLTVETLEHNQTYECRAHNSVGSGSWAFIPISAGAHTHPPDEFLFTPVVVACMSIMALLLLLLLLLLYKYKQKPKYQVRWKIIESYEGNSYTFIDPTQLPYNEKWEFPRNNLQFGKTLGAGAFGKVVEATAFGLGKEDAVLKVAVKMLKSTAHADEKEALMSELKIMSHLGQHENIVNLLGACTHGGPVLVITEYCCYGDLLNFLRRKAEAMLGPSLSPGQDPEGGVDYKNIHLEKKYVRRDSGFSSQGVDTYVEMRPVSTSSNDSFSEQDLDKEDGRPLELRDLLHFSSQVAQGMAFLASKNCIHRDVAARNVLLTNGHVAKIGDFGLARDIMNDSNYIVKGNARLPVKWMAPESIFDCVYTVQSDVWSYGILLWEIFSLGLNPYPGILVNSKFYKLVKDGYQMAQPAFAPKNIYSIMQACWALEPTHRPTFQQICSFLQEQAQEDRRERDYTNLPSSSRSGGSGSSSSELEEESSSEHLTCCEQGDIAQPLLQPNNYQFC
# Source text: as §1
# Kdr, sequence (P35968 20-1356): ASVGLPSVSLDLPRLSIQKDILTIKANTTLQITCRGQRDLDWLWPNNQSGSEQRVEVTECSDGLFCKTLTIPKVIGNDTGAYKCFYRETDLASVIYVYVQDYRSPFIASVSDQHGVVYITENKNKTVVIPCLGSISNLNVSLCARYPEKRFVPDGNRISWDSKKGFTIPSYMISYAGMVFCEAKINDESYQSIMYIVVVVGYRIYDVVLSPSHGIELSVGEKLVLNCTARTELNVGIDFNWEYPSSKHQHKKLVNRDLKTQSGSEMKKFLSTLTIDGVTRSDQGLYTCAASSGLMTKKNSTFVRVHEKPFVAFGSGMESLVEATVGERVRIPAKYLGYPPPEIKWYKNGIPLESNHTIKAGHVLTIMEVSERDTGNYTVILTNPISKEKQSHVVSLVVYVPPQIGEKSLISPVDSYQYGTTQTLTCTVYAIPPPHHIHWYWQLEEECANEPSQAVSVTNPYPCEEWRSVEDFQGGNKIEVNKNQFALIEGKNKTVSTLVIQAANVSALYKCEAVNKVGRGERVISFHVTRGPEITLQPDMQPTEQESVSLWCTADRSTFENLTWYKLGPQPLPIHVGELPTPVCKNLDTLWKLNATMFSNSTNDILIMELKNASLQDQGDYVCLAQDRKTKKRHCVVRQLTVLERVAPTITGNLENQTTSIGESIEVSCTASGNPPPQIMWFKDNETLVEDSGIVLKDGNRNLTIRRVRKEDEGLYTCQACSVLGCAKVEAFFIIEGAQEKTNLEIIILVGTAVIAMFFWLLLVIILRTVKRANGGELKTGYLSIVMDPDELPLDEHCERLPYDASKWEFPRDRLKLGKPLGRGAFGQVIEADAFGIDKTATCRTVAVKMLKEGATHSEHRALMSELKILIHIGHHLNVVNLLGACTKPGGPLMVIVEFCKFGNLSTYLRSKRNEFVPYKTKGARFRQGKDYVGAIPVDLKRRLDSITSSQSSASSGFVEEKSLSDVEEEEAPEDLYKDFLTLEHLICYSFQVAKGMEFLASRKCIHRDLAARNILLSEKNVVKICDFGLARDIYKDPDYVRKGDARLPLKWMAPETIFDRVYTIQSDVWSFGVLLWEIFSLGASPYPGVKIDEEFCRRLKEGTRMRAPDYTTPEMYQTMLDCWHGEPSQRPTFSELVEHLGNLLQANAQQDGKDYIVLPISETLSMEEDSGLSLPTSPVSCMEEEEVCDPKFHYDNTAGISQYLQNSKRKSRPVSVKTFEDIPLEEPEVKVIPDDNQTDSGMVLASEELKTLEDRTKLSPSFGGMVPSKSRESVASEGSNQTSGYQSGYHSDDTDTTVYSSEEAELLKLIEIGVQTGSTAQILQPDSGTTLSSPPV
SMILES,IC50 (Kdr) [µM],IC50 (Kit) [µM],IC50 (Fms) [µM]
"CCc1ccc(CNc2ncc(Cc3c[nH]c4ncncc34)cn2)nc1 [P-0033, (5-Ethyl-pyridin-2-ylmethyl)-[5-(7H-pyrrolo[2,3-d]pyrimidin-5-ylmethyl)-pyrimidin-2-yl]-amine]",≤ 10,≤ 10,≤ 10
"Cc1cc(CNc2ccc(Cc3c[nH]c4ncncc34)c(F)n2)ccn1 [P-0020, [6-Fluoro-5-(7H-pyrrolo[2,3-d]pyrimidin-5-ylmethyl)-pyridin-2-yl]-(2-methyl-pyridin-4-ylmethyl)-amine]",≤ 10,,≤ 10
"COc1ccc(CNc2ncc(Cc3c[nH]c4ncncc34)cn2)cn1 [P-0015, (6-Methoxy-pyridin-3-ylmethyl)-[5-(7H-pyrrolo[2,3-d]pyrimidin-5-ylmethyl)-pyrimidin-2-yl]-amine]",≤ 10,≤ 10,≤ 10
"COc1ccncc1CNc1ccc(Cc2c[nH]c3ncncc23)c(F)n1 [P-0056, [6-Fluoro-5-(7H-pyrrolo[2,3-d]pyrimidin-5-ylmethyl)-pyridin-2-yl]-(4-methoxy-pyridin-3-ylmethyl)-amine]",,,≤ 10
"COc1ccc(CNc2ncc(Cc3c[nH]c4ncncc34)cc2F)cn1 [P-0017, [3-Fluoro-5-(7H-pyrrolo[2,3-d]pyrimidin-5-ylmethyl)-pyridin-2-yl]-(6-methoxy-pyridin-3-ylmethyl)-amine]",≤ 10,≤ 10,≤ 10
"Clc1ccc(CNc2ncc(Cc3c[nH]c4ncncc34)cn2)cn1 [P-0029, (6-Chloro-pyridin-3-ylmethyl)-[5-(7H-pyrrolo[2,3-d]pyrimidin-5-ylmethyl)-pyrimidin-2-yl]-amine]",≤ 10,≤ 10,≤ 10
"Fc1nc(NCc2ccnc(N3CCCC3)c2)ccc1Cc1c[nH]c2ncncc12 [P-0059, [6-Fluoro-5-(7H-pyrrolo[2,3-d]pyrimidin-5-ylmethyl)-pyridin-2-yl]-(2-pyrrolidin-1-yl-pyridin-4-ylmethyl)-amine]",≤ 10,,≤ 10
"COc1ccc(CNc2ncc(Cc3c[nH]c4ncncc34)cc2C)cn1 [P-0012, (6-Methoxy-pyridin-3-ylmethyl)-[3-methyl-5-(7H-pyrrolo[2,3-d]pyrimidin-5-ylmethyl)-pyridin-2-yl]-amine]",≤ 10,≤ 10,≤ 10
"Cc1cnccc1CNc1ccc(Cc2c[nH]c3ncncc23)c(F)n1 [P-0055, [6-Fluoro-5-(7H-pyrrolo[2,3-d]pyrimidin-5-ylmethyl)-pyridin-2-yl]-(3-methyl-pyridin-4-ylmethyl)-amine]",,,≤ 10
"Fc1nc(NCc2cnccc2C(F)(F)F)ccc1Cc1c[nH]c2ncncc12 [P-0018, [6-Fluoro-5-(7H-pyrrolo[2,3-d]pyrimidin-5-ylmethyl)-pyridin-2-yl]-(4-trifluoromethyl-pyridin-3-ylmethyl)-amine]",≤ 10,≤ 10,≤ 10
"c1cc(CNc2ncc(Cc3c[nH]c4ncncc34)cn2)cc(OC2CCCC2)n1 [P-0087, (2-Cyclopentyloxy-pyridin-4-ylmethyl)-[5-(7H-pyrrolo[2,3-d]pyrimidin-5-ylmethyl)-pyrimidin-2-yl]-amine]",≤ 10,≤ 10,≤ 10
"CNc1ncc(CNc2ccc(Cc3c[nH]c4ncncc34)c(F)n2)cn1 [P-0042, (5-{[6-Fluoro-5-(7H-pyrrolo[2,3-d]pyrimidin-5-ylmethyl)-pyridin-2-ylamino]-methyl}-pyrimidin-2-yl)-methyl-amine]",,,≤ 10
"Cc1ncc(CNc2ccc(Cc3c[nH]c4ncncc34)c(F)n2)cn1 [P-0048, [6-Fluoro-5-(7H-pyrrolo[2,3-d]pyrimidin-5-ylmethyl)-pyridin-2-yl]-(2-methyl-pyrimidin-5-ylmethyl)-amine]",,,≤ 10
"Fc1ncccc1CNc1ccc(Cc2c[nH]c3ncncc23)c(F)n1 [P-0068, (2-Fluoro-pyridin-3-ylmethyl)-[6-fluoro-5-(7H-pyrrolo[2,3-d]pyrimidin-5-ylmethyl)-pyridin-2-yl]-amine]",≤ 10,,≤ 10
"Fc1cnccc1CNc1ccc(Cc2c[nH]c3ncncc23)c(F)n1 [P-0049, (3-Fluoro-pyridin-4-ylmethyl)-[6-fluoro-5-(7H-pyrrolo[2,3-d]pyrimidin-5-ylmethyl)-pyridin-2-yl]-amine]",,,≤ 10
"COc1cc(F)cc(CNc2ccc(Cc3c[nH]c4ncncc34)c(F)n2)c1 [P-0083, (3-Fluoro-5-methoxy-benzyl)-[6-fluoro-5-(7H-pyrrolo[2,3-d]pyrimidin-5-ylmethyl)-pyridin-2-yl]-amine]",≤ 10,≤ 10,≤ 10
"COc1ncccc1CNc1ncc(Cc2c[nH]c3ncncc23)cn1 [P-0084, (2-Methoxy-pyridin-3-ylmethyl)-[5-(7H-pyrrolo[2,3-d]pyrimidin-5-ylmethyl)-pyrimidin-2-yl]-amine]",,≤ 10,≤ 10

SMILES,IC50 (Kdr) [µM],IC50 (Kit) [µM],IC50 (Fms) [µM]
"COc1ncccc1CNc1ccc(Cc2c[nH]c3ncncc23)c(F)n1 [P-0026, [6-Fluoro-5-(7H-pyrrolo[2,3-d]pyrimidin-5-ylmethyl)-pyridin-2-yl]-(2-methoxy-pyridin-3-ylmethyl)-amine]",≤ 10,≤ 10,≤ 10
"Cc1ccnc(CNc2ccc(Cc3c[nH]c4ncncc34)c(F)n2)c1 [P-0058, [6-Fluoro-5-(7H-pyrrolo[2,3-d]pyrimidin-5-ylmethyl)-pyridin-2-yl]-(4-methyl-pyridin-2-ylmethyl)-amine]",≤ 10,,≤ 10
"COc1cc(CNc2ncc(Cc3c[nH]c4ncncc34)cn2)c(F)cn1 [P-0025, (5-Fluoro-2-methoxy-pyridin-4-ylmethyl)-[5-(7H-pyrrolo[2,3-d]pyrimidin-5-ylmethyl)-pyrimidin-2-yl]-amine]",≤ 10,,≤ 10
"c1cc(CNc2ncc(Cc3c[nH]c4ncncc34)cn2)nc(N2CCOCC2)c1 [P-0031, (6-Morpholin-4-yl-pyridin-2-ylmethyl)-[5-(7H-pyrrolo[2,3-d]pyrimidin-5-ylmethyl)-pyrimidin-2-yl]-amine]",≤ 10,≤ 10,≤ 10
"COc1ccc(CNc2ccc(C(=O)c3c[nH]c4ncncc34)c(C)n2)cn1 [P-0019, {6-[(6-Methoxy-pyridin-3-ylmethyl)-amino]-2-methyl-pyridin-3-yl}-(7H-pyrrolo[2,3-d]pyrimidin-5-yl)-methanone]",,,≤ 10
"c1ccc(CNc2ncc(Cc3c[nH]c4ncncc34)cn2)nc1 [P-0028, Pyridin-2-ylmethyl-[5-(7H-pyrrolo[2,3-d]pyrimidin-5-ylmethyl)-pyrimidin-2-yl]-amine]",,,≤ 10
"Fc1nc(NCc2ccncc2Cl)ccc1Cc1c[nH]c2ncncc12 [P-0047, (3-Chloro-pyridin-4-ylmethyl)-[6-fluoro-5-(7H-pyrrolo[2,3-d]pyrimidin-5-ylmethyl)-pyridin-2-yl]-amine]",≤ 10,,≤ 10
"c1cc(CNc2ncc(Cc3c[nH]c4ncncc34)cn2)cc(N2CCOCC2)n1 [P-0036, (2-Morpholin-4-yl-pyridin-4-ylmethyl)-[5-(7H-pyrrolo[2,3-d]pyrimidin-5-ylmethyl)-pyrimidin-2-yl]-amine]",≤ 10,≤ 10,≤ 10
"c1cc(CNc2ncc(Cc3c[nH]c4ncncc34)cn2)nc(N2CCCC2)c1 [P-0032, (6-Pyrrolidin-1-yl-pyridin-2-ylmethyl)-[5-(7H-pyrrolo[2,3-d]pyrimidin-5-ylmethyl)-pyrimidin-2-yl]-amine]",≤ 10,≤ 10,≤ 10
"COc1cc(CNc2ccc(Cc3c[nH]c4ncncc34)c(F)n2)ccn1 [P-0023, [6-Fluoro-5-(7H-pyrrolo[2,3-d]pyrimidin-5-ylmethyl)-pyridin-2-yl]-(2-methoxy-pyridin-4-ylmethyl)-amine]",≤ 10,≤ 10,≤ 10
"Fc1nc(NCc2ccc(Cl)cn2)ccc1Cc1c[nH]c2ncncc12 [P-0027, (5-Chloro-pyridin-2-ylmethyl)-[6-fluoro-5-(7H-pyrrolo[2,3-d]pyrimidin-5-ylmethyl)-pyridin-2-yl]-amine]",≤ 10,≤ 10,≤ 10
"COCCc1ncc(CNc2ccc(Cc3c[nH]c4ncncc34)c(F)n2)cn1 [P-0080, [6-Fluoro-5-(7H-pyrrolo[2,3-d]pyrimidin-5-ylmethyl)-pyridin-2-yl]-[2-(2-methoxy-ethyl)-pyrimidin-5-ylmethyl]-amine]",,,≤ 10
"CNc1ncccc1CNc1ccc(Cc2c[nH]c3ncncc23)c(F)n1 [P-0066, [6-Fluoro-5-(7H-pyrrolo[2,3-d]pyrimidin-5-ylmethyl)-pyridin-2-yl]-(2-methylamino-pyridin-3-ylmethyl)-amine]",≤ 10,,≤ 10
"Cc1cnccc1CNc1ncc(Cc2c[nH]c3ncncc23)cn1 [P-0034, (3-Methyl-pyridin-4-ylmethyl)-[5-(7H-pyrrolo[2,3-d]pyrimidin-5-ylmethyl)-pyrimidin-2-yl]-amine]",,,≤ 10
"Fc1cc(CNc2ccc(Cc3c[nH]c4ncncc34)c(F)n2)ccn1 [P-0074, (2-Fluoro-pyridin-4-ylmethyl)-[6-fluoro-5-(7H-pyrrolo[2,3-d]pyrimidin-5-ylmethyl)-pyridin-2-yl]-amine]",≤ 10,,≤ 10
"Fc1nc(NCc2ccncc2Br)ccc1Cc1c[nH]c2ncncc12 [P-0046, (3-Bromo-pyridin-4-ylmethyl)-[6-fluoro-5-(7H-pyrrolo[2,3-d]pyrimidin-5-ylmethyl)-pyridin-2-yl]-amine]",≤ 10,,≤ 10
"Cc1cc(CNc2ncc(Cc3c[nH]c4ncncc34)cn2)ccn1 [P-0035, (2-Methyl-pyridin-4-ylmethyl)-[5-(7H-pyrrolo[2,3-d]pyrimidin-5-ylmethyl)-pyrimidin-2-yl]-amine]",,,≤ 10
